Tests used:
[1] = tested on: C2C12 skeletal muscle cells; assay: Glycogen content assay in differentiated C2C12 myotubes; assay type: cell-based; conditions: 30 minutes
Method: (§1) The C2C12 skeletal muscle cells were cultured in Dulbecco's modified Eagle's medium (DMEM; Gibco/Invitrogen, Carlsbad, Calif.), and the human hepatocellular carcinoma cell line, Hl-ep3B, was cultured in Roswell Park Memorial Institute medium 1640 (RPMI 1640 medium; Gibco/Invitrogen, Carlsbad, Calif.). Cells were cultured at 37° C. in the humidified incubator supplied with 5% CO2. Culture mediums were supplemented with 4.5 mgmL^−1 glucose, penicillin 100 IUmL^−1, streptomycin 100 μgmL^−1 and 10% fetal bovine serum (Gibco/Invitrogen, Carlsbad, Calif.). Only C2C12 cells were then switched to 2% horse serum for 3 days after reaching the 70% confluence. Myotubes formation was achieved after 4 days of incubation, and the cells were used for subsequent experiments. Culture mediums were replaced by serum free DMEM or RPMI for 24 h before experiments (see e.g., procedure described in Sultan et al., 2006).
(§2) C2C12 and Hep3B cells were treated with 1 nM insulin, 100 μM metformin, and the assigned concentration of borapetoside A for 30 minutes. To develop the insulin resistance state of cells, C2C12 cells were incubated with IL-6 at 20 ngmL^−1 for 1 hour. Later, the cells were treated with 1 nM insulin, 100 μM metformin, and the assigned concentration of borapetoside A for 30 minutes. After the assigned treatment, cells were washed twice with phosphate buffered saline (PBS). Glycogen content was measured as previously described, with some modifications (see e.g., Savage et al., 2008). The protein concentrations of the cell lysates were determined by using Pierce BCA Protein Assay Kit (Thermo-Scientific, Rockford, Ill.). The glycogen content of each sample was normalized by total protein.

[2] = tested on: human hepatocellular carcinoma cell line Hep3B; assay: Glycogen content assay in Hep3B cells; assay type: cell-based; conditions: 30 minutes
Method: as §1, §2

phospho-Akt (Ser^473) = assay: Western blot of liver, phospho-Akt; assay type: in vivo; conditions: mice with type 1 DM, 10 mgkg^−1 i.p. twice a day for 7 days
Method: (§3) After three days of acclimatization, the mice had free access to a standard rodent chow (normal mice), a standard rodent chow after single 250 mgkg^−1 streptozotocin (STZ) intraperitoneal injection (TIDM mice), and a fat-rich chow diet and fructose-sweetened water (T2DM mice) for 4 weeks. The induction of Type 1 DM was assessed and confirmed when the mice had plasma glucose levels ≧350 mgdL^−1, accompanied with polyuria, hyperphagia and decreased body weight. The induction Type 2 DM in the mice was assessed by measuring fasting plasma glucose levels and confirmed when plasma glucose level was ≧150 mgdL^−1 after the 4-week induction. […]
(§4) Western blot analysis was carried out by known methods with a slight modification. […] After centrifuging the homogenates at 10,000 g for 30 minutes, the protein concentrations were determined by using a BCA Protein Assay Kit (Pierce Biotechnology, Rockford, Ill.). […] The membranes were analysed by using the antibodies against phospho-insulin receptor β (IRβ) (Tyr^1345), phospho-Akt (Ser^473), phosphor-AS160 (Thr^642), AS160 (Cell Signaling Technology, Beverly, Mass.), IRβ, Akt, β-Actin (Santa Cruz Biotechnology, Santa Cruz, Calif.), GLUT2 (Abcam, Cambridge, UK), and PEPCK (a gift from Professor D K Granner), respectively. […] The intensity of each band was quantified with ImageQuant.

liver = assay: Glycogen content in liver in vivo; parameters: species or system mice; conditions: 10 mgkg^−1 i.p., 60 minutes
Method: The mice were injected with borapetoside A (10 mgkg^−1, interperitoneal) for 60 minutes or insulin (0.5 IUkg^−1, interperitoneal) for 30 minutes. After the treatment, the anesthetic mice were sacrificed by cervical dislocation to collect the soleus muscle and liver. About 40 mg of each sample was dissolved in 1 mol/L KOH at 75° C. for 30 min. The dissolved homogenate was neutralized by glacial acetic acid and then incubated overnight in acetate buffer (0.3 mol/L sodium acetate, pH 4.8) containing amyloglucosidase (Sigma, St. Louis, Mo.). The mixture was then neutralized with 1 mol/L NaOH to stop the reaction. The glycogen contents in the tissue samples were determined as μg of glucose per mg of tissue (wet weight).

[3] = tested on: phospho-insulin receptor β (IRβ) (Tyr^1345); assay: Western blot of liver, phospho-insulin receptor; assay type: in vivo; conditions: mice with type 1 DM, 10 mgkg^−1 i.p. twice a day for 7 days
Method: as §3, §4

PEPCK = assay: Western blot of liver, PEPCK expression; assay type: in vivo; conditions: mice with type 1 DM, 10 mgkg^−1 i.p. twice a day for 7 days
Method: as §3, §4

phosphor-AS160 (Thr^642) = assay: Western blot of liver, phospho-AS160; assay type: in vivo; conditions: mice with type 1 DM, 10 mgkg^−1 i.p. twice a day for 7 days
Method: as §3, §4

## C[C@@]12C[C@@H](c3ccoc3)OC(=O)[C@@H]1C[C@@H]1OC(=O)[C@@]3(O)[C@@H](O[C@@H]4O[C@H](CO)[C@@H](O)[C@H](O)[C@H]4O)CC[C@@H]2[C@@]13C [borapetoside A]
[1]; 10^−6 mol/L
  fold increase of glycogen: 1.49±0.15 fold
[1]; 10^−7 mol/L
  fold increase of glycogen: 1.28±0.04 fold
[1]
  fold increase of glycogen: 1.53±0.10 fold
[2]; 10^−5 mol/L
  fold increase of glycogen content: 1.54±0.11 fold
[2]; 10^−6 mol/L
  fold increase of glycogen content: 1.39±0.12 fold
[2]; 10^−7 mol/L
  fold increase of glycogen content: 1.46±0.05 fold
phospho-Akt (Ser^473)
  phosphorylated Akt in liver: increased
liver; mice with type 1 DM
  glycogen content in liver, % of vehicle control: 196.9±15.6%
liver; mice with type 2 DM
  glycogen content in liver, % of vehicle control: 146.1±12.0%
liver; normal mice
  glycogen content in liver, % of vehicle control: 257.8±15.8%
[3]
  phosphorylated IR in liver: increased
PEPCK
  PEPCK expression in liver: significant decrease
phosphor-AS160 (Thr^642)
  phosphorylated AS160 in liver: increased

From patent US20150265644A1, “THERAPEUTIC METHODS AND COMPOSITIONS FOR TREATING DIABETES UTILIZING DITERPENOID COMPOUNDS” (Orient Europharma Co., Ltd., priority 2014, published 2015)
